Results: ChEMBL document CHEMBL3244373, “Stereoselective effects of cis- and trans-cyclopropylbis (dioxopiperazines) related to ICRF-159 on metastases of hamster lung adenocarcinoma” (J Med Chem, 1978)
Active and inactive are the calls of the source. The calls are words filed in the database; no cut-off is given here.

Assays:
Mesocricetus auratus [1] = experiment: Antimetastatic activity against Syrian hamster LG1002 cells allografted to Syrian golden hamster LSH/LAK assessed as reduction of lung metastases at 15 mg/kg, ip for every 48 hrs for 4 weeks measured after 48 hrs of last treatment relative to carboxymethylcellulose; type: functional, organism-based; design: dose 15 mg/kg
[2] = Induction of tumor growth in Syrian hamster LG1002 cells in allografted Syrian golden hamster at 15 mg/kg, ip for every 48 hrs for 4 weeks measured after 48 hrs of last treatment; type: organism-based, Mesocricetus auratus; design: dose 15 mg/kg, route intraperitoneal; details: in vivo
Mesocricetus auratus [3] = experiment: Antimetastatic activity against Syrian hamster LG1002 cells allografted to Syrian golden hamster LSH/LAK assessed as reduction of lung metastases at 15 mg/kg, ip for every 48 hrs for 4 weeks measured after 48 hrs of last treatment relative to saline control; type: functional, organism-based; design: dose 15 mg/kg
[4] = Induction of tumor growth in Syrian hamster LG1002 cells in allografted Syrian golden hamster at 15 mg/kg, ip for every 48 hrs for 4 weeks measured after 48 hrs of last treatment on day 28; type: organism-based, Mesocricetus auratus; design: dose 15 mg/kg, route intraperitoneal; details: in vivo

Activity [4] [mm2]	SMILES	inhibition (Mesocricetus auratus [1])	Activity [2]	inhibition (Mesocricetus auratus [3])
> 100	O=C1CN([C@H]2C[C@@H]2N2CC(=O)NC(=O)C2)CC(=O)N1 (relative stereo)	inactive	Toxic	inactive
–	O=C1CN([C@@H]2C[C@@H]2N2CC(=O)NC(=O)C2)CC(=O)N1	Active	Non-toxic	Active
